Measured values reported in the Bradley open melting point set (2014).

Row | melting point [°C] | SMILES
1 | 40 | N#Cc1cccc(I)c1 [3-iodobenzonitrile]
2 | 78 | CC(C)c1cccc(B(O)O)c1 [3-isopropylbenzeneboronic acid]
3 | 44 | COC1OC(=O)c2ccccc21 (stereo not drawn) [3-methoxy-2-benzofuran-1(3H)-one]
4 | 106 | COc1cccc(C(=O)O)c1 [3-methoxybenzoic acid]
5 | 38 | COc1ccc2c(c1)CC2O (stereo not drawn) [3-methoxybicyclo[4.2.0]octa-1,3,5-trien-7-ol]
6 | -18 | COc1cccc(O)c1 [3-methoxyphenol]
7 | 125 | Cc1ccn(C(N)=O)n1 [3-methyl-1h-pyrazole-1-carboxamide]
8 | -92 | CC(=O)C(C)C [3-methyl-2-butanone]
9 | -135 | CC=C(C)CC [3-methyl-cis-2-pentene]
10 | -129 | CC=C(/C)CCC [3-methyl-trans-2-hexene]
11 | 5 | Cc1cccc(-c2ccccc2)c1 [3-methylbiphenyl]
12 | -121 | CCCCC(C)CC (stereo not drawn) [3-methylheptane]
13 | 139 | Cc1cccc(C(=O)NCC(=O)O)c1 [3-methylhippuric acid]
14 | -82 | C=Cc1cccc(C)c1 [3-methylstyrene]
15 | 67 | CCCCCCSc1nc[nH]n1 [3-n-hexylthio-1,2,4-triazole]
16 | 202 | Nc1ccc(/C=C/c2ccc([N+](=O)[O-])cc2)c([N+](=O)[O-])c1 [3-nitro-4-[(E)-2-(4-nitrophenyl)ethenyl]aniline]
17 | 61 | O=[N+]([O-])c1cccc(S(=O)(=O)Cl)c1 [3-nitrobenzenesulfonyl chloride]
18 | 142 | O=C(O)c1cccc([N+](=O)[O-])c1 [3-nitrobenzoic acid]
19 | 32 | O=[N+]([O-])c1cccc(CO)c1 [3-nitrobenzyl_alcohol]

Row | melting point [°C] | SMILES
20 | 219 | O=C1NC(=O)c2c1cccc2[N+](=O)[O-] [3-nitrophthalimide]
21 | -104 | CCC#CCCCC [3-octyne]
22 | 140 | CC(CCC(=O)O)C1CCC2C3CCC4CC(=O)CCC4(C)C3CCC12C (stereo not drawn) [3-oxocholan-24-oic acid]
23 | 102 | CC(=O)OC1CC2C(CCC3(C)C(C(C)CCCC(C)C)CCC23)C2(C)CCC(=O)C=C12 (stereo not drawn) [3-oxocholest-4-en-6-yl acetate]
24 | 116 | O=C1CC(C(=O)O)c2ccccc21 (stereo not drawn) [3-oxoindane-1-carboxylic acid]
25 | -39 | CCC(=O)CC [3-pentanone]
26 | 58 | OCC(O)COc1ccccc1 (stereo not drawn) [3-phenoxy-1,2-propanediol]
27 | 51 | O=C1C=C(c2ccccc2)c2ccccc21 [3-phenyl-1H-inden-1-one]
28 | 135 | N#CC1(C#N)C=C(c2ccccc2)c2ccccc21 [3-phenyl-1H-indene-1,1-dicarbonitrile]
29 | -42 | O=CCCc1ccccc1 [3-phenylpropionaldehyde]
30 | 49 | O=C(O)CCc1ccccc1 [3-phenylpropionic acid]
31 | 149 | CN1N=C(C(C)(C)C)CC1=O [3-tert-butyl-1-methyl-2-pyrazolin-5-one]
32 | 13 | CCCCCCCCC(=O)CC [3-undecanone]
33 | 128 | C=Cc1cccc(B(O)O)c1 [3-vinylbenzeneboronic acid]
34 | 128 | CC(=O)C(=Cc1ccc(-c2ccccc2[N+](=O)[O-])o1)C(C)=O [3-{[5-(2-nitrophenyl)-2-furyl]methylene}pentane-2,4-dione]
35 | 140 | CC(=O)Nc1ccc(C(C)=O)cc1Br [4'-acetamido-3'-bromoacetophenone]
36 | 248 | CC(=O)Nc1c(Br)cc(N)cc1Br [4'-amino-2',6'-dibromoacetanilide]
37 | 143 | CCc1cc(Br)ccc1NC(C)=O [4'-bromo-2'-ethylacetanilide]
38 | 118 | CC(=O)Nc1ccc(Br)c(C(F)(F)F)c1 [4'-bromo-3'-(trifluoromethyl)acetanilide]

Row | melting point [°C] | SMILES
39 | 124 | CC(=O)Nc1ccc(Br)c(Cl)c1 [4'-bromo-3'-chloroacetanilide]
40 | 156 | CC(=O)Nc1ccc(Cl)cc1F [4'-chloro-2'-fluoroacetanilide]
41 | 29 | CC(=O)c1ccc(Cl)cc1O [4'-chloro-2'-hydroxyacetophenone]
42 | 32 | CC(=O)c1ccc(F)cc1O [4'-fluoro-2'-hydroxyacetophenone]
43 | 38 | COc1ccc(C(C)=O)cc1 [4'-methoxyacetophenone]
44 | 103 | COc1ccc(-c2ccc(S(=O)(=O)Cl)cc2)cc1 [4'-methoxybiphenyl-4-sulfonyl chloride]
45 | -19 | CC(=O)c1ccc(C)cc1 [4'-methylacetophenone]
46 | 226 | CCCc1ccc(-c2ccc(C(=O)O)cc2)cc1 [4'-n-propylbiphenyl-4-carboxylic acid]
47 | 216 | CC(=O)Nc1ccc([N+](=O)[O-])cc1 [4'-nitroacetanilide]
48 | 44 | CC(O)CCc1ccc(CCC(C)O)cc1 (stereo not drawn) [4,4'-benzene-1,4-diyldibutan-2-ol]
49 | 177 | Nc1ccc(S(=O)(=O)c2ccc(N)cc2)cc1 [4,4'-diaminodiphenyl sulfone]
50 | 29 | Cc1ccc(Cc2ccc(C)cc2)cc1 [4,4'-dimethyldiphenylmethane]
51 | 173 | CC(CCC(=O)O)(c1ccc(O)cc1)c1ccc(O)cc1 [4,4-bis(4-hydroxyphenyl)valeric acid]
52 | 224 | Cc1ccc(C)c2c1C(=O)NC2=O [4,7-dimethyl-1H-isoindole-1,3(2H)-dione]
53 | 84 | O=Cc1ccc(N2CCCC2)cc1 [4-(1-pyrrolidinyl)benzaldehyde]
54 | 139 | OC1(c2ccc(Cl)cc2)CCNCC1 [4-(4-chlorophenyl)-4-hydroxypiperidine]
55 | 74 | CN(C)c1ccc(C=O)cc1 [4-(Dimethylamino)benzaldehyde]
56 | 175 | N#Cc1ccc(Oc2ccnc3ccccc23)cc1C#N [4-(Quinolin-4-yloxy)phthalonitrile]

Row | SMILES | melting point [°C]
57 | N#CCCO [3-hydroxypropionitrile] | -46
58 | Cc1cccc([N+](=O)[O-])c1C [3-nitro-1,2-dimethylbenzene] | 9
59 | Cc1cccc([N+](=O)[O-])c1C [3-nitro-o-xylene] | 14
60 | O=[N+]([O-])c1cccc(O)c1 [3-nitrophenol] | 97
61 | O=C(O)CCP(=O)(O)O [3-phosphonopropionic acid] | 164
62 | CC(=O)c1ccc(N2CCNCC2)cc1 [4'-(1-piperazinyl)acetophenone] | 96
63 | CC(=O)c1ccc(Br)cc1 [4'-bromoacetophenone] | 51
64 | Clc1ccc(C(c2ccc(Cl)cc2)C(Cl)(Cl)Cl)cc1 [4,4'-DDT] | 110
65 | Fc1ccc(-c2ccc(F)cc2)cc1 [4,4'-difluorobiphenyl] | 88
66 | C#CC1(O)CCC2C3CCC4C(C)(C)CCCC4(C)C3CCC21C (stereo not drawn) [4,4-dimethylpregn-20-yn-17-ol] | 157
67 | OB(O)c1ccc(CBr)cc1 [4-(bromomethyl)benzeneboronic acid] | 148
68 | O=C(CCl)N1CCOCC1 [4-(chloroacetyl)morpholine] | 29
